Measured values from publication PMC4491869, “Antimicrobial activity of synthetic cationic peptides and lipopeptides derived from human lactoferricin against Pseudomonas aeruginosa planktonic cultures and biofilms” (BMC Microbiology, 2015).
Values after ≈ are worked out from the molar mass of the structure shown. Where a SMILES comes first, the peptide text is derived from it. The star is where a group is joined. Butanoyl(2,2-Me2) = CCC(C)(C)C(=O)*; Octanoyl(6-Me) = CCC(C)CCCCC(=O)*

How the values were obtained:
[1] = tested on: Pseudomonas aeruginosa PAO1 planktonic cells; assay type: cell-based; conditions: PAO1, 24 h
Procedure: Minimal inhibitory concentrations (MIC) of the peptides were determined in Mueller Hinton (MH) medium (Difco Laboratories, Detroit, MI, USA) by the broth microdilution assay following recommendations of the Clinical and Laboratory Standards Institute (CLSI, formerly NCCLS) with some modifications. Minimum bactericidal concentration (MBC) was defined as the concentration that caused a 3-log viability decrease in the initial inoculum and was calculated by colony counts on TSA plates incubated for 24 h at 37 °C.

[2] = tested on: P. aeruginosa PAO1; assay: Time-kill curves (T3log); assay type: cell-based, Pseudomonas aeruginosa; conditions: MH, 37 °C with shaking, sampling 15 min to 6 h
Procedure: Time-kill studies were determined with glass tubes containing 10 ml of MH and different concentrations of the peptides (1, 2 and 4 times their MIC). Overnight cultures of P. aeruginosa PAO1 in TSB were adjusted at 5 × 10^7 CFU/ml turbidimetrically. This […] suspension was diluted in the MH tubes (1:50) for the time-kill assay. Tubes were incubated at 37 °C with shaking and samples were taken at the following time points after the beginning of incubation: 15 min, 30 min, 45 min, 1 h, 2 h, 4 h and 6 h. Each sample was serially diluted and plated. The lower limit of detection was 30 CFU/ml (1.5 × log10 CFU/ml).
To quantify the killing efficiency of the treatments, the parameter T3log (defined as the time required for the treatment to decrease 3 logs the initial inoculum) was used.

[3] = tested on: S. aureus; assay: MIC against S. aureus; assay type: cell-based; conditions: data not shown
[4] = tested on: P. aeruginosa PAO1 pMF230 biofilm; assay: CDC-reactor biofilm assay, confocal laser scanning microscopy (GFP/PI); assay type: cell-based, Pseudomonas aeruginosa; conditions: 10XMIC, 60 min, CLSM, determined by volume
Procedure: (§1) Briefly, 1 ml of an overnight culture of P. aeruginosa PAO1 pMF230 was inoculated into 350 ml of TSB and this suspension was used to fill the reactor chamber. After 24 h of growth in batch culture at 37 °C with magnetic agitation, a continuous flow of TSB (3 g/l) was applied to the reactor chamber at a rate of 11 ml/min. Under these conditions, a dense biofilm develops on the surface of small disks called coupons that are constantly bathed in fresh culture medium. After 24 h incubation, the coupons were removed from the chamber and planktonic cells were eliminated by rinsing the coupons with saline. […]
(§2) For the microscopic assessment of anti-biofilm activity, biofilms grown and treated on coupons as detailed above were soaked in a 120 μM solution of propidium iodide (PI, live/dead® Baclight™ bacterial viability kit, Invitrogen, Carlsbad, CA, USA) in filter-sterilized distilled water and incubated for 15 min at room temperature. Then, coupons were rinsed in filter-sterilized distilled water and their surface was examined by fluorescence microscopy using FITC filter (green fluorescence: λexcitation, 499 nm; λemission, 519 nm) and TRITC filter (red fluorescence: λexcitation, 552 nm; λemission, 578 nm). […] Microscope images were analyzed with the software Imaris® × 64 5.7.2. […]

[5] = tested on: P. aeruginosa PAO1 biofilms; assay type: cell-based, Pseudomonas aeruginosa; conditions: 10XMIC, 24 h at 37 °C, biofilms grown in microplates (static conditions)
Procedure: In the microplate based assay, biofilms were grown with no fluid shear and the anti-biofilm activity of peptides was assessed as previously described with some modifications. Briefly, overnight cultures of P. aeruginosa PAO1 in TSB were adjusted at 5 × 10^7 CFU/ml turbidimetrically. This suspension was diluted in TSB (1:100) and 100 μl aliquots were added to the wells of a 96-well plate. After 24 h incubation at 37 °C, planktonic bacteria were removed by gently inverting the plate and then the biofilm-containing wells were washed with saline (0.85 % NaCl). The antimicrobial compound was serially diluted in Mueller Hinton (MH) at final concentrations higher than its planktonic MIC and 200 μl of each dilution was added to the wells. After 24 h incubation at 37 °C, biofilms were stained with either MTT (Sigma, St. Louis, MO, USA) or crystal violet (CV). As control, duplicate biofilms were incubated with MH containing no antimicrobial.
To quantify the disinfection (or bactericidal) activity of the antimicrobials on the biofilms, the MTT assay was used and performed as follows. After the treatment, the biofilms were rinsed with saline and 200 μl of a 0.5 mg/ml dilution of MTT in MH, was added to the wells. Incubation of biofilm with MTT was carried out during 4 h at 37 °C with no shaking. As a measure of cell viability, the conversion of MTT to a […] was determined by solubilizing the salt in 100 μl/well of DMSO and reading the absorbance of the resulting solution at 540 nm.
Both the disinfection and removal activity of antimicrobials were expressed as “activity percentage”, a parameter that was calculated using the following formula: ActivityPercentage=C−B−T−B/C−B×100
Where C is the absorbance value of the control well with non-treated biofilm, T corresponds to the absorbance value of the well with treated biofilm and B is the blank well (i.e. with no biofilm).

[6] = tested on: HeLa cells; assay: Cytotoxicity assay (MTT); assay type: cell-based
Procedure: Cytotoxicity was assayed on HeLa cells using the MTT [3-(4,5-dimethylthiazoyl-2-yl) 2,5 diphenyltetrazolium bromide protocol. Cells were grown in Dulbeccos’s modified Eagle’s medium (DMEM) and adjusted to a concentration of 10^5 cells/ml (MTT) in 96 wells polystyrene plates. Plates were incubated for 24 h at 37 °C in 5 % CO2, then supplemented with increasing amounts of peptides diluted in 2 mM Hepes pH 7.2, and incubation carried on for 24 h under the same conditions. After this time, filter-sterilized MTT was added in different plates. After 3 h, the content of the wells was gently solved and mixed with 100 μl of DMSO (MTT). Absorbance was measured at 540 nm. Compound cytotoxicity was expressed as LC50, the concentration of the compound that is lethal to 50 % of the cells.

[7] = tested on: P. aeruginosa PAO1 pMF230 biofilm; assay: CDC-reactor biofilm assay, fluorescence microscopy (GFP/PI); assay type: cell-based, Pseudomonas aeruginosa; conditions: 10XMIC, 60 min, CDC-reactor coupons; compared with 24 h microplate assay
Procedure: as §1, §2

Row | SMILES | MBC (minimal bactericidal concentration) [1] | MIC (minimal inhibitory concentration) [1] | T3log at 1X MIC (time needed to decrease 3 logs the initial inoculum) [2] | T3log at 2X MIC (time needed to decrease 3 logs the initial inoculum) [2] | T3log at 4X MIC (time needed to decrease 3 logs the initial inoculum) [2] | MIC against S. aureus compared with non-acylated counterpart [3] | Percentage of dead (red) cells in the biofilm volume [4] | Disinfection activity (biofilm-forming bacteria killed, MTT test) [5] | LC50 expressed as multiple of the MIC [6] | LC50 (concentration lethal to 50 % of the cells) ([6]; HeLa cells, 24 h, MTT) | Anti-biofilm activity under static and dynamic conditions (fluorescence microscopy) [7]
1 | CCC(C)CCCCC(=O)N[C@@H](Cc1ccccc1)C(=O)N[C@@H](Cc1c[nH]c2ccccc12)C(=O)N[C@@H](CCCNC(=N)N)C(=O)N[C@@H](CCCNC(=N)N)C(=O)N[C@@H](Cc1ccccc1)C(=O)N[C@@H](Cc1c[nH]c2ccccc12)C(=O)N[C@@H](CCCNC(=N)N)C(=O)N[C@@H](CCCNC(=N)N)C(N)=O (stereo partly shown) [6-MO-LF11-227] ({Octanoyl(6-Me)}-FWRRFWRR-NH2) | 128 µg/mL (≈ 88.3 µM) | 128 µg/mL (≈ 88.3 µM) | 10 minutes | 10 minutes | 10 minutes | eight times lower | – | – | – | – | –
2 | CC[C@H](C)[C@H](NC(=O)[C@H](CCCNC(=N)N)NC(=O)[C@@H](NC(=O)[C@H](CCCNC(=N)N)NC(=O)[C@H](Cc1c[nH]c2ccccc12)NC(=O)[C@H](Cc1ccccc1)NC(=O)[C@@H]1CCCN1C(=O)C(C)(C)CC)[C@@H](C)CC)C(=O)N[C@@H](CCCNC(=N)N)C(=O)N[C@@H](CCCNC(=N)N)C(N)=O [DI-MB-LF11-322, 2,2-dimethylbutanoyl-PFWRIRIRR] ({Butanoyl(2,2-Me2)}-PFWRIRIRR-NH2) | 32 µg/mL (≈ 22.9 µM) | 32 µg/mL (≈ 22.9 µM) | 12 minutes | 11 minutes | 10 minutes | – | 99.81% | medium-range disinfection activity | ~2 XMIC | 80 µg/mL | potent anti-biofilm activity
